Laboratory results reported in the NIST ThermoML archive (doi:10.1016/j.fluid.2004.12.012).
Numbers after ± are expanded uncertainties.

How the values were obtained:
[1] = Crystal; DTA
[2] = Molar enthalpy of transition or fusion; settings: Crystal; DSC

SMILES	Normal melting temperature [1] [°C]	Molar enthalpy of transition or fusion [2] [kcal/mol]
COc1cccc(C=O)c1O [2-hydroxy-3-methoxybenzaldehyde]	40.5 ± 0.5	4.94 ± 0.148
CCOc1cc(C=O)ccc1O [3-ethoxy-4-hydroxybenzaldehyde]	76.7 ± 0.5	6.06 ± 0.174
CCOc1cccc(C=O)c1O [3-ethoxysalicylaldehyde]	64.1 ± 0.5	6.08 ± 0.179
COc1cc(C=O)ccc1O [vanillin]	82.4 ± 0.5	5.73 ± 0.167
